From patent US9980943B2, “Methods of treating muscular dystrophy” (BOARD OF REGENTS OF THE NEVADA SYSTEM OF HIGHER EDUCATION, …, priority 2013, dated 2018)

Key:
Format in all cases: cell-based, mouse
[1] = tested on: α7 integrin (LacZ reporter in α7βgal+/− myoblasts); experiment: Myoblast α7+/LacZ integrin FDG assay (Burkin assay in myoblasts, 96-well); conditions: α7+/LacZ myoblasts, 96-well
[2] = tested on: β-galactosidase in CMV-LacZ C2C12 myotubes; experiment: CMV-LacZ secondary screen in C2C12 myotubes (β-Gal stabilizing assay); conditions: C2C12 CMV-LacZ myotubes, fold relative to DMSO
Method in brief: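 β-Gal level was the read-out, measured in a clonal C2C12 line expressing LacZ from a CMV promoter. Dose-response curves used six concentrations, 0.5 μM up to 40 μM, with duplicate points.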

[3] = tested on: α7 integrin (LacZ reporter in α7+/LacZ myotubes); experiment: Myotube α7 integrin FDG assay (Burkin assay in myotubes, 96-well); conditions: myotubes

SMILES | Burkin Assay in Myoblasts, signal relative to DMSO ([1]; 0.5 uM) | Burkin Assay in Myoblasts, signal relative to DMSO ([1]; 1 uM) | Burkin Assay in Myoblasts, signal relative to DMSO ([1]; 5 uM) | Burkin Assay in Myoblasts, signal relative to DMSO ([1]; 10 uM) | Burkin Assay in Myoblasts, signal relative to DMSO ([1]; 20 uM) | Burkin Assay in Myoblasts, signal relative to DMSO ([1]; 40 uM) | CMV-LACZ in Myotubes, signal relative to DMSO ([2]; 5 uM) | CMV-LACZ in Myotubes, signal relative to DMSO ([2]; 10 uM) | CMV-LACZ in Myotubes, signal relative to DMSO ([2]; 20 uM) | CMV-LACZ in Myotubes, signal relative to DMSO ([2]; 40 uM) | Burkin Assay in Myotubes, α7 integrin LacZ reporter signal relative to DMSO ([3]; 0.5 uM) | Burkin Assay in Myotubes, α7 integrin LacZ reporter signal relative to DMSO ([3]; 1 uM) | Burkin Assay in Myotubes, α7 integrin LacZ reporter signal relative to DMSO ([3]; 5 uM) | Burkin Assay in Myotubes, α7 integrin LacZ reporter signal relative to DMSO ([3]; 10 uM) | Burkin Assay in Myotubes, α7 integrin LacZ reporter signal relative to DMSO ([3]; 20 uM) | Burkin Assay in Myotubes, α7 integrin LacZ reporter signal relative to DMSO ([3]; 40 uM) | also measured
Cc1cc2ccccc2n2c(SCC(=O)NCc3cccs3)nnc12 [MLS000526364-01] | 0.9747 | 0.9502 | 1.045 | 1.085 | 1.114 | 1.029 | 0.9507 | 0.953 | 1.1735 | 1.1865 | 0.9648 | 0.8953 | 1.033 | 0.8908 | 1.358 | 0.9162 | 
COc1cc2c(cc1NC(=O)Cc1ccc(C)cc1)oc1ccccc12 [MLS000579238-01] |  |  |  |  |  |  |  |  |  |  |  |  |  |  |  |  | fold induction at 0.5 µM ([1]; Mus musculus, Myoblast, 48 h, 0.5 uM, read-out: Burkin Assay in Myoblasts, signal relative to DMSO): 0.961; fold induction at 1 µM ([1]; Mus musculus, Myoblast, 48 h, 1 uM, read-out: Burkin Assay in Myoblasts, signal relative to DMSO): 1.11; fold induction at 5 µM ([1]; Mus musculus, Myoblast, 48 h, 5 uM, read-out: Burkin Assay in Myoblasts, signal relative to DMSO): 1.17; fold induction at 10 µM ([1]; Mus musculus, Myoblast, 48 h, 10 uM, read-out: Burkin Assay in Myoblasts, signal relative to DMSO): 1.3; fold induction at 20 µM ([1]; Mus musculus, Myoblast, 48 h, 20 uM, read-out: Burkin Assay in Myoblasts, signal relative to DMSO): 1.11; fold induction at 40 µM ([1]; Mus musculus, Myoblast, 48 h, 40 uM, read-out: Burkin Assay in Myoblasts, signal relative to DMSO): 0.912; fold induction at 5 µM ([2]; Mus musculus, C2C12, read-out: CMV-LACZ in Myotubes, signal relative to DMSO, 5 uM): 0.815; fold induction at 10 µM ([2]; Mus musculus, C2C12, read-out: CMV-LACZ in Myotubes, signal relative to DMSO, 10 uM): 0.872; fold induction at 20 µM ([2]; Mus musculus, C2C12, read-out: CMV-LACZ in Myotubes, signal relative to DMSO, 20 uM): 0.83; fold induction at 40 µM ([2]; Mus musculus, C2C12, read-out: CMV-LACZ in Myotubes, signal relative to DMSO, 40 uM): 0.944; fold induction at 0.5 µM ([3]; Mus musculus, Myotube, 0.5 uM, read-out: Burkin Assay in Myotubes, α7 integrin LacZ reporter signal relative to DMSO): 0.951; fold induction at 1 µM ([3]; Mus musculus, Myotube, 1 uM, read-out: Burkin Assay in Myotubes, α7 integrin LacZ reporter signal relative to DMSO): 1.11; fold induction at 5 µM ([3]; Mus musculus, Myotube, 5 uM, read-out: Burkin Assay in Myotubes, α7 integrin LacZ reporter signal relative to DMSO): 1.01; fold induction at 10 µM ([3]; Mus musculus, Myotube, 10 uM, read-out: Burkin Assay in Myotubes, α7 integrin LacZ reporter signal relative to DMSO): 1.1; fold induction at 20 µM ([3]; Mus musculus, Myotube, 20 uM, read-out: Burkin Assay in Myotubes, α7 integrin LacZ reporter signal relative to DMSO): 0.856; fold induction at 40 µM ([3]; Mus musculus, Myotube, 40 uM, read-out: Burkin Assay in Myotubes, α7 integrin LacZ reporter signal relative to DMSO): 0.771
CNC(=O)/C(=C\c1cccc(Oc2ccccc2)c1)NC(=O)c1ccccc1 [MLS000389677-01] | 0.5325 | 0.8831 | 0.8426 | 0.7976 | 0.6619 | 0.6089 | 0.8142 | 0.7418 | 1.019 | 0.761 | 1.005 | 0.9156 | 1.109 | 0.9956 | 0.6421 | 0.953 | 
Cc1ccccc1C(=O)Nc1scc(-c2ccc(Br)cc2)c1C(=O)O [MLS001179267-01] |  |  |  |  |  |  | 0.9091 | 0.8244 | 0.6141 | 0.5554 |  |  |  |  |  |  | Burkin Assay in Myoblasts, value relative to DMSO ([1]; 0.5 uM): 0.983; Burkin Assay in Myoblasts, value relative to DMSO ([1]; 1 uM): 1.031; Burkin Assay in Myoblasts, value relative to DMSO ([1]; 5 uM): 0.9797; Burkin Assay in Myoblasts, value relative to DMSO ([1]; 10 uM): 0.9902; Burkin Assay in Myoblasts, value relative to DMSO ([1]; 20 uM): 0.9305; Burkin Assay in Myoblasts, value relative to DMSO ([1]; 40 uM): 0.95; Burkin Assay in Myotubes (signal relative to DMSO) ([3]; 0.5 uM): 0.947; Burkin Assay in Myotubes (signal relative to DMSO) ([3]; 1 uM): 0.8787; Burkin Assay in Myotubes (signal relative to DMSO) ([3]; 5 uM): 0.8908; Burkin Assay in Myotubes (signal relative to DMSO) ([3]; 10 uM): 0.559; Burkin Assay in Myotubes (signal relative to DMSO) ([3]; 20 uM): 0.8589; Burkin Assay in Myotubes (signal relative to DMSO) ([3]; 40 uM): 0.5111
